Test results: paper PMC11079024, “Identification of a family of species-selective complex I inhibitors as potential anthelmintics” (Nature Communications, 2024)
“And” between values parts separate entries of the source, which are not always exact repeats. Identical values can stand only once.

What was measured:
[1] = biological target: H. sapiens (HEK293 cells) complex I (Homo sapiens, UniProt O75251+O75306+P03886); test: In vitro complex I activity assay, HEK293 cell mitochondria; assay type: biochemical
H. sapiens (HEK293 cells) complex I, sequence (O75251 39-213): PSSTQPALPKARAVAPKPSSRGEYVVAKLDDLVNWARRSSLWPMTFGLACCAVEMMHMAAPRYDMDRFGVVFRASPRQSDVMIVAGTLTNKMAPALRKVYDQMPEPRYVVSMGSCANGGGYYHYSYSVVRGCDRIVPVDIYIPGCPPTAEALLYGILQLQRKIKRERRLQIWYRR
H. sapiens (HEK293 cells) complex I, sequence (P03886 whole entry): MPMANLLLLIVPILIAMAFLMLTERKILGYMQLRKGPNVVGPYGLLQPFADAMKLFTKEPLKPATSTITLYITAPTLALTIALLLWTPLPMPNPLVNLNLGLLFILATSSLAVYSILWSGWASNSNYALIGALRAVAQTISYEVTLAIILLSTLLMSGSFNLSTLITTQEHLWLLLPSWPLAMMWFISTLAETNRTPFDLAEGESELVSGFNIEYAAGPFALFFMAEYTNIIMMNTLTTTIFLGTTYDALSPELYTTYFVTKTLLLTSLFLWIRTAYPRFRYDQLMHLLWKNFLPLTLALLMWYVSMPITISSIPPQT
H. sapiens (HEK293 cells) complex I, sequence (O75306 34-463): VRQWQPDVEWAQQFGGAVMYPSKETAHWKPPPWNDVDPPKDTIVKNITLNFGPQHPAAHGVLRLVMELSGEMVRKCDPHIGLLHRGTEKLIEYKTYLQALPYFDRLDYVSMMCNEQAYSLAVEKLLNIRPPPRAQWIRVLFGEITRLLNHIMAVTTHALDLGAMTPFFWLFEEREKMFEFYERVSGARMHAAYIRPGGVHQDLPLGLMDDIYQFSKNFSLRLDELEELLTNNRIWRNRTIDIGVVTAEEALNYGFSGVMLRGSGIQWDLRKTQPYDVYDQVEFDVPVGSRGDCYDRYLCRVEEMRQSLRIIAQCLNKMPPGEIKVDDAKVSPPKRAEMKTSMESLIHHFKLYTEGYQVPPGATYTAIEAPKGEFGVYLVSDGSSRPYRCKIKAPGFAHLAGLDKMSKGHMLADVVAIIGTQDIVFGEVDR

L1 P. pacificus (PS312) = test: Liquid development and viability assay, P. pacificus; assay type: cell-based, Pristionchus pacificus; settings: liquid growth and development assay, 1 = like DMSO control, 0 = death
Excerpt: (§1) Supplementary Figure 9. Class A, B, and C benzimidazoles inhibit complex I of several Clade V nematode species in vitro. […]
(§2) against the in vitro complex I activity from C. elegans, C. briggsae, P. pacificus, and P. hermaphrodita […]
(§3) L1 C. elegans (N2), C. briggsae (AF16), and P. pacificus (PS312) in a nematode liquid growth and development assay. The colour-coded scale denotes the viability of nematodes following drug treatment relative to DMSO controls; white/pale-yellow indicates nematode growth and viability similar to DMSO controls and red indicates nematode death and arrested development. Data are the mean of at least three biological replicates. Due to seemingly poor growth in liquid culture, P. hermaphrodita was not tested in the liquid viability and development assay.
(§4) Supplementary Figure 9 (continued). Davie et al.

L1 C. briggsae (AF16) = test: Liquid development and viability assay, C. briggsae; assay type: cell-based, Caenorhabditis briggsae; settings: liquid growth and development assay, 1 = like DMSO control, 0 = death
Excerpt: as §1, §2, §3, §4

[2] = test system: C. elegans (N2) complex I (NADH:ubiquinone oxidoreductase); test: biochemical; assay type: biochemical; settings: wild-type C. elegans mitochondria
Summary of the method: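 Activity expressed as percent of solvent control. Complex I rate came from DCIP reduction at 600 nm (initial linear slope, 15 min) with NADH and decylubiquinone as substrates, plus antimycin A and KCN, in pH 7.5 KPi/BSA buffer. Isolated, thrice freeze-thawed mitochondria used at 0.2 mg/mL.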

For CC(C)Cc1ccc(C(C)c2nc3ccccc3n2C)cc1 (stereo not shown) [NPD8790], which remaining activity at 0.06 µM ([1]; H. sapiens (HEK293 cells) mitochondria, 0.06 µM, Mean of replicates, read-out: in vitro complex I activity relative to solvent control) is on record?
The remaining activity at 0.06 µM was 90.2%.

And the remaining activity at 0.13 µM ([1]; H. sapiens (HEK293 cells) mitochondria, 0.13 µM, Mean of replicates, read-out: in vitro complex I activity relative to solvent control)?
The remaining activity at 0.13 µM was 78.3%.

And the remaining activity at 0.313 µM ([1]; H. sapiens (HEK293 cells) mitochondria, 0.313 µM, Mean of replicates, read-out: in vitro complex I activity relative to solvent control)?
The remaining activity at 0.313 µM was 76.7%.

And the remaining activity at 0.625 µM ([1]; H. sapiens (HEK293 cells) mitochondria, 0.625 µM, Mean of replicates, read-out: in vitro complex I activity relative to solvent control)?
The remaining activity at 0.625 µM was 129%.

What about the remaining activity at 1.5 µM ([1]; H. sapiens (HEK293 cells) mitochondria, 1.5 µM, Mean of replicates, read-out: in vitro complex I activity relative to solvent control) of the same molecule?
Its remaining activity at 1.5 µM is 95.7%.

What about the remaining activity at 3 µM ([1]; H. sapiens (HEK293 cells) mitochondria, 3 µM, Mean of replicates, read-out: in vitro complex I activity relative to solvent control) of the same molecule?
The remaining activity at 3 µM was 102%.

What about the remaining activity at 15 µM ([1]; H. sapiens (HEK293 cells) mitochondria, 15 µM, Mean of replicates, read-out: in vitro complex I activity relative to solvent control) of the same molecule?
The remaining activity at 15 µM was 85.1%.

And the remaining activity at 37.5 µM ([1]; H. sapiens (HEK293 cells) mitochondria, 37.5 µM, Mean of replicates, read-out: in vitro complex I activity relative to solvent control)?
The remaining activity at 37.5 µM was 52.8%.

And the remaining activity at 75 µM ([1]; H. sapiens (HEK293 cells) mitochondria, 75 µM, Mean of replicates, read-out: in vitro complex I activity relative to solvent control)?
The remaining activity at 75 µM was 61.5%.

And the IC50 ([1]; mitochondria purified from HEK293 cells)?
The IC50 was over 75 µM.

Which results are given for Cc1nc2ccccc2n1Cc1ccc(Cl)cc1 [STK697993]?
viability score (0-1) relative to DMSO controls (L1 P. pacificus (PS312); 2 µM): 1.000; viability score (0-1) relative to DMSO controls (L1 P. pacificus (PS312); 3.9 µM): 1.000; viability score (0-1) relative to DMSO controls (L1 P. pacificus (PS312); 15.6 µM): 0.943; viability score (0-1) relative to DMSO controls (L1 P. pacificus (PS312); 31.3 µM): 0.0076; viability score (0-1) relative to DMSO controls (L1 P. pacificus (PS312); 62.5 µM): 0.000; viability score (0-1) relative to DMSO controls (L1 P. pacificus (PS312); 125 µM): 0.007; viability score (0-1) relative to DMSO controls (L1 P. pacificus (PS312); 250 µM): 0.026; viability score (0-1) relative to DMSO controls (L1 C. briggsae (AF16); 2 µM): 1.000; viability score (0-1) relative to DMSO controls (L1 C. briggsae (AF16); 3.9 µM): 1.000; viability score (0-1) relative to DMSO controls (L1 C. briggsae (AF16); 15.6 µM): 1.000; viability score (0-1) relative to DMSO controls (L1 C. briggsae (AF16); 31.3 µM): 0.341; viability score (0-1) relative to DMSO controls (L1 C. briggsae (AF16); 62.5 µM): 0.009; viability score (0-1) relative to DMSO controls (L1 C. briggsae (AF16); 125 µM): 0.017; viability score (0-1) relative to DMSO controls (L1 C. briggsae (AF16); 250 µM): 0.008

With c1ccc2[nH]c(-c3cscn3)nc2c1 [Thiabendazole] as the molecule, how does the “percent (%) in vitro complex I activity relative to solvent control” value ([2]; 0.125 µM, mean of replicates) read?
The value was 102.109%.

What about the “percent (%) in vitro complex I activity relative to solvent control” value ([2]; 0.125 µM, single replicate) of the same molecule?
Its value is 99.976% and 103.068% and 101.883% and 103.510%.

And the “percent (%) in vitro complex I activity relative to solvent control” value ([2]; 0.313 µM, mean of replicates)?
Its value is 98.029%.

And the “percent (%) in vitro complex I activity relative to solvent control” value ([2]; 0.313 µM, single replicate)?
The value was 96.436% and 97.421% and 98.637% and 99.622%.

What about the “percent (%) in vitro complex I activity relative to solvent control” value ([2]; 0.625 µM, mean of replicates) of the same molecule?
The value was 100.000%.

And the “percent (%) in vitro complex I activity relative to solvent control” value ([2]; 0.625 µM, single replicate)?
Its value is 100.000%.

What about the “percent (%) in vitro complex I activity relative to solvent control” value ([2]; 1.5 µM, mean of replicates) of the same molecule?
The value was 94.806%.

And the “percent (%) in vitro complex I activity relative to solvent control” value ([2]; 1.5 µM, single replicate)?
The value was 99.025% and 95.797% and 89.075% and 95.328%.

And the “percent (%) in vitro complex I activity relative to solvent control” value ([2]; 3 µM, mean of replicates)?
The value was 103.387%.

What about the “percent (%) in vitro complex I activity relative to solvent control” value ([2]; 3 µM, single replicate) of the same molecule?
Its value is 101.704% and 108.843% and 104.258% and 98.742%.

What about the “percent (%) in vitro complex I activity relative to solvent control” value ([2]; 15 µM, mean of replicates) of the same molecule?
The value was 102.027%.

What about the “percent (%) in vitro complex I activity relative to solvent control” value ([2]; 15 µM, single replicate) of the same molecule?
Its value is 100.357% and 106.821% and 103.640% and 97.291%.

And the “percent (%) in vitro complex I activity relative to solvent control” value ([2]; 37.5 µM, mean of replicates)?
The value was 98.201%.

And the “percent (%) in vitro complex I activity relative to solvent control” value ([2]; 37.5 µM, single replicate)?
Its value is 99.533% and 98.195% and 100.518% and 94.556%.

And the “percent (%) in vitro complex I activity relative to solvent control” value ([2]; 75 µM, mean of replicates)?
Its value is 97.767%.

And the “percent (%) in vitro complex I activity relative to solvent control” value ([2]; 75 µM, single replicate)?
Its value is 97.247% and 98.620% and 98.499% and 96.702%.
